Results published in patent US7183054B2, “Assay for identifying biological targets of polynucleotide-binding compounds” (President and Fellows of Harvard College, priority 2003, dated 2007).

Legend:
[1] = test system: GAPDH; assay: Affinity chromatography with drug-alkylated dsDNA resin in bovine brain lysate (GAPDH); assay type: binding; conditions: summary statement
[2] = molecular target: T1, GAPDH (Bos taurus, UniProt P10096); assay: as above; assay type: binding; conditions: ds-oligonucleotide resin alkylated with drug; bovine brain lysate, 4° C.; silver-stained SDS-PAGE
T1 construct: from tissue; host or cells: bovine brain homogenate
T1 sequence (P10096 2-333): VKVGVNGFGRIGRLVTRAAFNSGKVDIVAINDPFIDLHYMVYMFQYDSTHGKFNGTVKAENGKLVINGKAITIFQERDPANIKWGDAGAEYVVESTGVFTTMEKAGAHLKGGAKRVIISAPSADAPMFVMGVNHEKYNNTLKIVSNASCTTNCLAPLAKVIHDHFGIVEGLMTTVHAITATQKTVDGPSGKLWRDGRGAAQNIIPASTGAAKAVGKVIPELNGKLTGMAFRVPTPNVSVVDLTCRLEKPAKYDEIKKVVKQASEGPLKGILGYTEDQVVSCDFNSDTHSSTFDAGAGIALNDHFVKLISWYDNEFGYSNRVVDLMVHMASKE

[3] = test system: A549 lung carcinoma; conditions: A549 lung carcinoma tumor cell line; cited from earlier work
[4] = test system: A375 melanoma; conditions: A375 melanoma tumor cell line; cited from earlier work
[5] = molecular target: T2, Human erythrocyte GAPDH (Homo sapiens, UniProt P04406); assay: Southwestern blot of GAPDH with 32P-labeled dsDNA-drug complexes; assay type: binding; conditions: membrane probed with 32P labeled DNA alkylated with drug
T2 construct: Human erythrocyte GAPDH (Sigma 6019) was dissovled in ddH2O; purchased Sigma 6019 (G6019); host or cells: human erythrocytes
T2 sequence (P04406 whole entry): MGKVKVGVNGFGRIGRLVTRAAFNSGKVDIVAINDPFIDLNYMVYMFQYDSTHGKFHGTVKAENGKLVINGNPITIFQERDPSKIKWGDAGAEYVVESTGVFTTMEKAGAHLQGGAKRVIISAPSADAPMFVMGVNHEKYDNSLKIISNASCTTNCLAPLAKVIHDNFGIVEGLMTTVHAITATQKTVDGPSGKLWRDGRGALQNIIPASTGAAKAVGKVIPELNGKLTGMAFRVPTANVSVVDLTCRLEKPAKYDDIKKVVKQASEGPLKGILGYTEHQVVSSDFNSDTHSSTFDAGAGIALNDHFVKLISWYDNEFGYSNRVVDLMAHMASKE
Procedure: FIG. 5 depicts the Southwestern blot technique using GAPDH and saframycins. FIG. 5A is a schematic of the Southwestern blot technique. […] The membranes with GAPDH were incubated with the various ^32P-labeled dsDNA-drug complexes. Lane 1: free dsDNA control; Lane 2: HQ alkylated dsDNA; Lane 3: QAD alkylated dsDNA; Lane 4: Pt 650 alkylated dsDNA; Lane 5: SafA alkylated dsDNA.
(§1) Construction of Drug-based Affinity Resin. The amino-modified QAD and its hemiaminal derivative, amino-modified HQ was prepared by coupling SafA synthetic intermediate^11 with 6-(4-Fmoc-amino-n-butoxy)-quinaldic acid followed by Fmoc deprotection. The amino-modified QAD/HQ was purified by reverse-phase HPLC and coupled to AffiGel-15. […] The amount of drug coupled to the affinity resin was determined by quantifying the drug that remained in the supernatant using reverse-phase HPLC. […] The supernatant solution was analyzed by reverse-phase HPLC. The amount of ds-oligonucleotide detected in the supernatant from the heating step was taken to be the amount of ds-oligonucleotide coupled to drug on the affinity resin in the form of stable dsDNA-drug binary complex. […] The concentration of double-stranded 21-mer DNA on the resin was determined by heat denaturing the double strand DNA on a known amount of resin and subsequently determining the concentration of complementary strand in free solution by UV spectrometry. […]

[6] = molecular target: T3, HMG1 (Bos taurus, UniProt P10103); assay: Affinity chromatography with drug-alkylated dsDNA resin in bovine brain lysate (HMG1); assay type: binding; conditions: ds-oligonucleotide resin alkylated with drug; pre-cleared bovine brain lysate
T3 construct: from tissue; host or cells: bovine brain homogenate
T3 sequence (P10103 1-215): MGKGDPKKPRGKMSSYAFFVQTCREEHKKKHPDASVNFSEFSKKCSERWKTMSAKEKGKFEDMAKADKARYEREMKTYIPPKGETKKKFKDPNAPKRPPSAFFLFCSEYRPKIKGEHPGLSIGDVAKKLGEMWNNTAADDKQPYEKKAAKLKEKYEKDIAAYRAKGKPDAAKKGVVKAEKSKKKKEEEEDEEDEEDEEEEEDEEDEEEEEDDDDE
Procedure: FIG. 4 is a photograph of a silver-stained SDS-PA gel showing the affinity chromatography results. The affinity matrix was incubated in bovine brain lysate at 4° C., washed extensively, and heat denatured to release bound proteins. […]
as §1, with “Resin.” for “Resin. The amino-modified QAD and its hemiaminal derivative, amino-modified HQ was prepared by coupling SafA synthetic intermediate^11 with 6-(4-Fmoc-amino-n-butoxy)-quinaldic acid followed by Fmoc deprotection. The amino-modified QAD/HQ was purified by reverse-phase HPLC and coupled to AffiGel-15.”

[7] = test system: A549 cells; assay: GI50 in GAPDH siRNA transfected A549 cells (MTS); assay type: cell-based; conditions: 72 hours drug exposure

SMILES | cellular target found [1] | binding of 37-kDa protein (GAPDH) to drug-dsDNA binary complex [2] | IC50 [3] | IC50 [4] | radioactivity at GAPDH protein band [5] | binding of 31-kDa protein (HMG1) to drug-dsDNA binary complex [6] | GI50 change in GAPDH siRNA transfected cells vs control siRNA [7] | GI50 change in GAPDH siRNA transfected cells vs control siRNA ([7]; listed as cis-platin)
COC1=C(C)C(=O)C2=C(C1=O)[C@@H]1[C@@H]3CC4=C(C(=O)C(OC)=C(C)C4=O)[C@H](CNC(=O)C(C)=O)N3[C@@H](C#N)[C@H](C2)N1C [(−)-Saframycin A] | target cellular GAPDH | bind specifically | 133 nM | 5.3 nM | radioactivity was detected |  |  | 
COc1cc2c(cc1O)CCN[C@]21CS[C@@H]2c3c(OC(C)=O)c(C)c4c(c3[C@H](COC1=O)N1[C@@H]2[C@H]2c3c(cc(C)c(OC)c3O)C[C@@H]([C@@H]1O)N2C)OCO4 [Ecteinascidin 743] | target cellular GAPDH |  | 1 nM | 0.15 nM |  |  |  | 
COc1c(C)cc2c(c1O)[C@@H]1[C@@H]3Cc4c(OC(C)=O)c(C)c5c(c4[C@H](CN4C(=O)c6ccccc6C4=O)N3[C@@H](C#N)[C@H](C2)N1C)OCO5 [Pt 650, phthalascidin] |  | bind specifically |  |  | radioactivity was detected |  |  | 
N.N.[Cl][Pt][Cl] [cisplatin] |  | did not bind |  |  |  | bind specifically | nearly the same sensitivity | unchanged
N.N.[Cl][Pt+2][Cl] [transplatin] |  | did not bind |  |  |  | did not recruit any protein |  | 
